Data: patent US9873883B2, “Glyphosate resistant plants and associated methods” (Dow AgroSciences LLC, priority 2012, dated 2018)

Experiments:
[1] = molecular target: T1, Glycine max (soybean) EPSP synthase DGT-1 variant DGT-1 v8 (T→I, P→S; TIPS) (Glycine max, UniProt I1J7U9, P187S/T183I); assay: In vitro kinetic assay (inorganic phosphate production, malachite green); format: biochemical
T1 sequence (I1J7U9 with tags, fused parts or gaps T183I/P187S): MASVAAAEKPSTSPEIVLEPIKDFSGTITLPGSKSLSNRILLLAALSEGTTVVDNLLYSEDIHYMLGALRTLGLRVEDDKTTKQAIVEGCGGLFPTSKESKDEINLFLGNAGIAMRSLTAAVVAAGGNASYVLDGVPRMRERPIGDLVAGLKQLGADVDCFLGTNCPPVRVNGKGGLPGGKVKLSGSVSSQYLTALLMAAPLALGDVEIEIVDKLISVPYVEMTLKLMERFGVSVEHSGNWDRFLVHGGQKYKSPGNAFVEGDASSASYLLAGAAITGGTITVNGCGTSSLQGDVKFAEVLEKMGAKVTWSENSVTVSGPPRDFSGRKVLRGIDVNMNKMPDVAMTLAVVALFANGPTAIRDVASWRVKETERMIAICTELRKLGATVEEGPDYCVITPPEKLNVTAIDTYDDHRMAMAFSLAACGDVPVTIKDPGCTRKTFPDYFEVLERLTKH
Source text: (§1) The following Class I enzymes: DGT-1 from Glycine max, DGT-3 from Brassica napus (GENBANK ACC NO: P17688), and DGT-7 from Triticum aestivum (GENBANK ACC NO: EU977181) were used as a comparison. The Class I EPSP synthase enzymes and mutant variants thereof were synthesized and evaluated. A mutation introduced into the plant EPSP synthase enzymes consisted of the Glycine to Alanine mutation made within the EPSP synthase enzyme at a similar location as that of the G96A mutation from the E. coli version of the enzyme. In addition, Threonine to Isoleucine and Proline to Serine mutations were introduced within these Class I EPSP synthase enzymes at analogous positions as that of amino acid 97 (T to I) and amino acid 101 (P to S) in the EPSP synthase of E. coli as described in Funke et al., (2009).
(§2) The location of the amino acid residue which was mutated from glycine to alanine is indicated by the first asterisk. The location of the amino acid residue which was mutated from threonine to isoleucine is indicated by the second asterisk. The location of the third amino acid residue which was mutated from proline to serine is indicated by the third asterisk. These mutations were introduced into different versions of DGT-1, DGT-3, and DGT-7. The different versions of the genes which contain the mutations are described in more detail below.
(§3) Additional constructs containing the dgt-1, dgt-3 and dgt-7 were synthesized. These constructs were used for in vitro testing of the dgt-1 v5, dgt-1 v6, dgt-1 v7, dgt-1 v8, dgt-3 v6, dgt-3 v7, dgt-3 v8, dgt-7 v5, dgt-7 v6, dgt-7 v7, and dgt-7 v8 gene sequences were outsourced to GeneArt for synthesis and cloning. The synthesized genes were cloned into the pET28 expression vector. The resulting constructions were labeled as pDAB102028 containing dgt-1 v5, pDAB102029 containing dgt-1 v6, pDAB102032 containing dgt-1 v7, pDAB102034 containing dgt-1 v8, pDAB100429 containing dgt-3 v6, pDAB100442 containing dgt-3 v7, pDAB100430 containing dgt-3 v8, pDAB102036 containing dgt-7 v5, pDAB102038 containing dgt-7 v6, pDAB102040 containing dgt-7 v7, and pDAB102042 containing dgt-7 v8.
(§4) Recombinant DGT proteins were overexpressed in Rosetta2™ (DE3) cells (Novagen, Madison, Wis.) from the constructs described above. A single colony was used to inoculate 50 mL starter cultures of LB containing chloramphenicol (25 μg/mL) and kanamycin (50 μg/mL) which were cultivated overnight at 37° C. The overnight cultures were used to inoculate 1 L of LB containing chloramphenicol (25 μg/mL) and kanamycin (50 μg/mL). The cultures were grown at 37° C. to an O.D.600=0.6 then placed in an ice water bath for 10 minutes. Expression of the target proteins was achieved by addition of IPTG to a final concentration of 500 μM. Induction was allowed to proceed overnight at 20° C. followed by harvesting via centrifugation at 8,000 rpm for 20 minutes. The cell pellets were stored at −80° C. until required for purification. All purification steps were carried out at 4° C.
(§5) Cell pellets from 1 L cultures were resuspended in 20-30 mL Buffer A (50 mM HEPES pH 7.5, 150 mM KCl, 2 mM DTT, 1 mM EDTA, 20 mM imidazole, and 5% glycerol). COMPLETE™ protease inhibitor cocktail (1 tablet/50 mL, Roche, Indianapolis, Ind.) and lysozyme (1 mg/mL, Sigma-Aldrich, St. Louis, Mo.) were then added and the suspension was stirred for 20 minutes. Cell lysis was performed using a Branson Sonifier 250 (3×60 second bursts) followed by removal of the cell debris by centrifugation at 16,000 rpm for 45 minutes. DGT enzymes were purified to homogeneity in one step via immobilized metal affinity chromatography (IMAC) using a 5 mL HisTrap FF crude column. The column was equilibrated in Buffer A and the sample was loaded in the same buffer. The column was then washed with 10 column volumes of Buffer A followed by elution in a 0-100% Buffer B (50 mM HEPES pH 7.5, 200 mM KCl, 2 mM DTT, 1 mM EDTA, 500 mM imidazole, and 5% glycerol) linear gradient over 25 column volumes. […]

[2] = molecular target: T2, Triticum aestivum (wheat) EPSP synthase DGT-7 variant DGT-7 v6 (G→A) (Triticum aestivum, UniProt B5M6A1, G167A); assay: as above; format: biochemical; settings: for IC50: IC50 (glyphosate)
T2 sequence (B5M6A1 with tags, fused parts or gaps G167A): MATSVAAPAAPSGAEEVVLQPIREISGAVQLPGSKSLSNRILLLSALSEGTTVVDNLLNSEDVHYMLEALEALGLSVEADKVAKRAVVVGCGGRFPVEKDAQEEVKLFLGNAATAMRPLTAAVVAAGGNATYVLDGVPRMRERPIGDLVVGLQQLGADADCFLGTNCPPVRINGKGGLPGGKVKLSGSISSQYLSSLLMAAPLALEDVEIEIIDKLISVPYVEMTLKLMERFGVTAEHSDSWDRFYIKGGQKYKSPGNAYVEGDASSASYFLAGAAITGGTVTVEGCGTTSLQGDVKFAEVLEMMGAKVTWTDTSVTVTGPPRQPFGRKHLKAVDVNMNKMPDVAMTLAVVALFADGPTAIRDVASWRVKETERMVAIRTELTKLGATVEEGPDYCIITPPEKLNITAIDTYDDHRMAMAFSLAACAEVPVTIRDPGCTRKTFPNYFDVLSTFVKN
Source text: as §1, §2, §3, §4, §5

Row | Compound | kcat/Km ([1]; PEP, pH 7.5, 1 mM S3P) | increase of Km for PEP ([2]; G to A mutation vs un-mutated) | IC50 ([1]; IC50 (glyphosate), at 60 μM PEP) | IC50 ([1]; IC50 (glyphosate), at 1 mM PEP) | IC50 ([1]; tolerance to glyphosate, PEP concentration not given) | IC50 ([2]; at 60 μM PEP) | IC50 ([2]; at 1 mM PEP)
1 | C=C(OP(=O)(O)O)C(=O)O [PEP, phosphoenolpyruvate] | 12300 M⁻¹ s⁻¹ | ~8 fold | – | – | – | – | –
2 | O=C(O)CNCP(=O)(O)O [glyphosate, N-(phosphonomethyl)glycine] | – | – | 5.9 mM | 13.3 mM | 3 to 6 mM | 15.1 mM | 8.1 mM
